Results as given in ChEMBL document CHEMBL5727940, “Substituted piperazines as selective HDAC1,2 inhibitors” (2020).

Biological target: hERG (KCNH2) (Homo sapiens, UniProt Q12809)
Experiment: hERG inhibition assays: For hERG inhibition assays, the cells used were HEK293 cells stably transfected with hERG (cell line obtained from Cytocentrics Inc. 3463 Magic Drive San Antonio, Tex. 78229). Composition of External Solution: NaCl, 137 mM; KCl, 4 mM; MgCl2, 1.0 mM; CaCl2, 1.8 mM; HEPES 10 mM; Dextrose 11 mM; Adjusted to a pH of 7.4 with NaOH. Composition of Internal Solution: KCl, 130.0 mM
Conditions: pH 7.4

Chain of hERG (KCNH2) (Q12809 whole entry): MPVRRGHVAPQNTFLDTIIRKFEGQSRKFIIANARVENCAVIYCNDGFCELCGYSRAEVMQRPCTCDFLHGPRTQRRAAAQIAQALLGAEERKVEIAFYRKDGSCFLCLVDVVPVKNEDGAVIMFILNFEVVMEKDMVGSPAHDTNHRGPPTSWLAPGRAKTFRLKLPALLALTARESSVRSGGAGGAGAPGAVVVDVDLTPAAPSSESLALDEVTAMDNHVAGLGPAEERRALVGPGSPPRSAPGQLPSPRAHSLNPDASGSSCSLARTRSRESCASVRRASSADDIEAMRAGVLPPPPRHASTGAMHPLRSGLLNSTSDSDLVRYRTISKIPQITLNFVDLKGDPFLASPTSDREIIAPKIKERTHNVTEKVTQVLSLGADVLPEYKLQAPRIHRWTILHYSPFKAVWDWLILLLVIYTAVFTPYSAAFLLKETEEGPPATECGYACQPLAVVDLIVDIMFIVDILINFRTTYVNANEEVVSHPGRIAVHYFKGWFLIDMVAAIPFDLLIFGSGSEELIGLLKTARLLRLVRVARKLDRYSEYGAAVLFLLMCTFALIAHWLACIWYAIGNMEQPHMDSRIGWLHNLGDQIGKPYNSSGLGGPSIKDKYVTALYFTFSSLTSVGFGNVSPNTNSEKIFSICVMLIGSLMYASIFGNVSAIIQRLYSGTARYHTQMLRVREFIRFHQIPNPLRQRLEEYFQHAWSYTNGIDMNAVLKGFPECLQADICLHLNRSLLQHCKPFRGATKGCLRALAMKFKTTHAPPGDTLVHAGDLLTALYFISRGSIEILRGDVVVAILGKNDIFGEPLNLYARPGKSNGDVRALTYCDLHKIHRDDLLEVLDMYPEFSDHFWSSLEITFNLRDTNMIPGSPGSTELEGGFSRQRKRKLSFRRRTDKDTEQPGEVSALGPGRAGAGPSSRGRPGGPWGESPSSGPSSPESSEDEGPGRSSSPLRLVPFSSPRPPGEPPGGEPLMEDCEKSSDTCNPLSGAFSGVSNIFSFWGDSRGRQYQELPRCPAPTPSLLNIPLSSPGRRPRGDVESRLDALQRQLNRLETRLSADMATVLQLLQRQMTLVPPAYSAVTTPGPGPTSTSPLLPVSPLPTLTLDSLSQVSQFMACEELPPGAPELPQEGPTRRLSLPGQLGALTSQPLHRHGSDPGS

Nc1ccc(-c2cccs2)cc1NC(=O)c1ncc(N2CCNCC2)s1
IC50: 3.6 µM
